Source: PMC11597386, “Pharmacokinetics and Quantitative Structure–Pharmacokinetics Relationship Study of Xanthine Derivatives with Antidepressant, Anti-Inflammatory, and Analgesic Activity in Rats” (Pharmaceutics, 2024)
Like-named read-outs stand apart in the source and are kept apart here.

Key:
[1] = Pharmacokinetics after single intravenous administration to cannulated rats, noncompartmental analysis; assay type: in vivo, rat; conditions: for clearance / Vd / half-life: male, Wistar, rat, plasma, iv; for clearance: read-out: CL, total body clearance; for Vd: read-out: Vz, volume of distribution based on the terminal phase; for half-life: read-out: t0.5λz, terminal half-life
Protocol: Male Wistar rats, 15–17 weeks of age and weighing between 250 and 350 g, purchased from the Animal Facility of the Jagiellonian University Medical College, Krakow, Poland, were used in all experiments. They were kept under conditions of constant temperature (21–25 °C) and relative humidity of approximately 40–65% with a standard light/dark cycle. Animals were housed in stainless steel cages with suspended wire mesh floors (maximum of 5 rats per cage) with free access to distilled water and the commercial rodent chaw. All study protocols were approved by the First Local Ethical Committee on Animal Testing of the Jagiellonian University (licenses no. Zi/604/2011 and 13/2014).
Three days prior to the experiment, the rat’s jugular vein was cannulated (SAI Infusion Technologies, Lake Villa, IL, USA), allowing for multiple blood samples from a single animal. […] The doses were selected based on the results of our previous studies on rats and mice. Four rats per compound were used. Multiple blood samples were taken over a period of at least 120 min into heparinized tubes; plasma was separated by centrifugation (Universal 32, Hettich, Germany) at 1400× g for 20 min and stored at −80 °C until analysis.
(§1) For the purpose of the quantitative analysis of free and total plasma concentrations of studied compounds, different analytical methods were developed. Theo was extracted from the biological samples by liquid–liquid extraction using dichloromethane. The mixture consisting of 100 μL of rat plasma or ultrafiltrate, 10 μL of theobromine (25 μg/mL in methanol) used as IS, 20 μL of 0.1 M HCl, and 5 mL of dichloromethane was agitated on a shaker (VXR Vibrax, IKA, Staufen, Germany) and subsequently centrifuged for 20 min at 3000 rpm (Universal 32, Hettich, Germany). A clear supernatant (4 mL) was transferred into a glass conical tube and evaporated to dryness under a stream of nitrogen in a water bath at 37 °C. The residue was then reconstituted in 100 μL of methanol, vortexed for 30 s, and the solution was transferred into the automatic sampler vials. Finally, 10–50 μL aliquot was injected into the HPLC/DAD system (LaChrome Elite, Merck-Hitachi, Germany). Chromatographic separation was performed on the LiChrospher 100 RP-18 (250 × 4 mm i.d., 5 µm particle size) analytical column coupled with a LiChroCART® guard column (4.0 × 4.0 mm, 5 μm) from Merck (Darmstadt, Germany). The mobile phase consisted of a mixture of methanol and deionized water (20:80, v/v) and was pumped through the system at a flow rate of 1.0 mL/min. The peaks were detected by a DAD detector at the wavelength of 271 nm. […] The analytical run lasted 20 min.
Plasma or ultrafiltrate samples containing PTX or (R)-LSF were placed in a glass tube and spiked with 10 µL of the IS solution (100 µg/mL temazepam in methanol). Samples were then acidified with 20 µL of 0.1 M hydrochloric acid, and 3 mL of dichloromethane was added to each sample. Tubes were shaken for 20 min and subsequently centrifuged (2000× g, 20 min). Then, 2.5 mL of dichloromethane was transferred to a clean glass conical tube and evaporated under a gentle stream of nitrogen in a water bath at 37 °C. The dried residue was dissolved in 100 µL of the mobile phase, and 50 µL of this solution was injected into the HPLC column. Analysis was performed on a 250 × 4.6 mm Chiralpak AD column (Daicel Corp., Tokyo, Japan) with 10 μm particle size, protected with a 20 × 4.6 mm LC-Si guard-column (Supelco Inc., Bellefonte, PA, USA). Mobile phase consisted of hexane: 2-propanol, 84:16 (v/v), and 0.01% diethylamine and was pumped at a flow rate of 1.4 mL/min. Calibration curves were linear in a range of 0.1–50 mg/L. The retention times of IS, PTX, and (R)-LSF were 7, 16, and 20 min, respectively. […]

[2] = Plasma protein binding / unbound fraction by ultrafiltration of plasma collected 15 min after i.v. administration; assay type: in vitro ADME; conditions: male, Wistar, rat, intravenous
Protocol: The free concentrations of studied compounds in plasma were determined and unbound fraction (fu) was calculated in all available plasma samples obtained 15 min after the intravenous administration. At this time point, 500–600 µL of blood was collected and plasma samples obtained were divided into two portions: 150–200 µL for measurement of free compound concentrations and 100 µL for measurement of the total drug concentrations. Plasma proteins were separated by an ultrafiltration method using Centrifree® devices with Ultracel PL regenerated cellulose membrane, 30,000 NMWL (Merck, Germany). For direct measurement of the free concentrations of compounds, each plasma sample was transferred to a sample reservoir of the disposable filter unit and centrifuged (1000× g) for 20 min at 25 °C. An aliquot of the ultrafiltrate was directly subjected to analysis. Free and total compound concentrations were measured by a high-performance liquid chromatography method with diode-array detection (HPLC-DAD) or liquid chromatography with tandem mass spectrometry (LC-MS/MS).
as §1, with “Theo was extracted from the biological samples by liquid–liquid extraction using dichloromethane.” left out
Plasma or ultrafiltrate samples containing PTX or (R)-LSF were placed in a glass tube and spiked with 10 µL of the IS solution (100 µg/mL temazepam in methanol). Samples were then acidified with 20 µL of 0.1 M hydrochloric acid, and 3 mL of dichloromethane was added to each sample. Tubes were shaken for 20 min and subsequently centrifuged (2000× g, 20 min). Then, 2.5 mL of dichloromethane was transferred to a clean glass conical tube and evaporated under a gentle stream of nitrogen in a water bath at 37 °C. The dried residue was dissolved in 100 µL of the mobile phase, and 50 µL of this solution was injected into the HPLC column. Analysis was performed on a 250 × 4.6 mm Chiralpak AD column (Daicel Corp., Tokyo, Japan) with 10 μm particle size, protected with a 20 × 4.6 mm LC-Si guard-column (Supelco Inc., Bellefonte, PA, USA). Mobile phase consisted of hexane: 2-propanol, 84:16 (v/v), and 0.01% diethylamine and was pumped at a flow rate of 1.4 mL/min. […] HPLC system (Thermo Separation Product, San Jose, CA, USA) consisted of a UV/VIS spectrophotometric detector (Spectra 100) with absorbance set at 275 nm, P100 pump, and Rheodyne 7125 manual injector (Alltech Associates, Deerfield, IL, USA) with a 50 µL sample loop. Chromatograms were recorded and integrated with an SP 4400 ChromJet integrator (San Jose, CA, USA).

[3] = tested on: plasma proteins; set-up: method as in earlier work; conditions: cited from earlier work
[4] = rat plasma 15 min after i.v. administration, ultrafiltration, geometric mean, n = 4, read-out: fb, fraction bound to plasma proteins (converted)
[5] = rat plasma 15 min after i.v. administration, ultrafiltration, geometric mean, n = 4, read-out: fu, fraction unbound in plasma
[6] = rat plasma proteins, read-out: percent of plasma protein binding (converted)
[7] = male Wistar rats, single i.v. dose (50 mg/kg Theo; 40 mg/kg PTX, LSF; 5 mg/kg GR-1 to GR-5; 2 mg/kg GR-6 to GR-8), geometric mean, n = 4

COc1ccccc1N1CCN(CCCCCn2cnc3c2c(=O)n(C)c(=O)n3C)CC1 [GR-3]
clearance [1]: 23.6 mL/min/kg | Vd [1]: 1.7 L/kg | half-life [1]: 49.8 min | fraction unbound at 15 min [2, 4]: 0.28 | fraction unbound at 15 min [2, 5]: 0.28 | fraction unbound at 15 min [2, 6]: 0.28 to 0.29

Cn1c(=O)c2c(ncn2CC(O)CO)n(C)c1=O (centres unmarked) [diprophyllinum]
percent of plasma protein binding [3]: 84–90%

C[C@@H](O)CCCCn1c(=O)c2c(ncn2C)n(C)c1=O [(R)-LSF, R-lisofylline, reference compound]
Vss, volume of distribution at steady-state [1, 7]: 0.78 L/kg | clearance [1]: 22.1 mL/min/kg | Vd [1]: 0.82 L/kg | half-life [1]: 25.7 min | fraction unbound at 15 min [2, 4]: 0.79 | fraction unbound at 15 min [2, 5]: 0.79 | fraction unbound at 15 min [2, 6]: 0.79

COc1nc2c(c(=O)n(C)c(=O)n2C)n1CCCC(=O)O [GR-6]
Vss, volume of distribution at steady-state [1, 7]: 0.49 L/kg | Vz, volume of distribution based on the terminal phase [1, 7]: 1.06 L/kg | clearance [1]: 43.1 mL/min/kg | half-life [1]: 17.1 min | fraction unbound at 15 min [2, 4]: 0.31 | fraction unbound at 15 min [2, 5]: 0.31

COC(=O)Cn1c(=O)[nH]c2c1c(=O)n(C)c(=O)n2C [GR-8]
Vss, volume of distribution at steady-state [1, 7]: 0.33 L/kg | clearance [1]: 68.1 mL/min/kg | Vd [1]: 0.66 L/kg | half-life [1]: 6.75 min | fraction unbound at 15 min [2, 4]: 0.14 | fraction unbound at 15 min [2, 5]: 0.14

Cn1c(=O)c2c(ncn2CCCCN2CCN(c3cccc(Cl)c3)CC2)n(C)c1=O [GR-1]
clearance [1]: 33.1 mL/min/kg | Vd [1]: 2.17 L/kg | half-life [1]: 45.4 min | fraction unbound at 15 min [2, 4]: 0.08 | fraction unbound at 15 min [2, 5]: 0.08

Cn1c(=O)c2[nH]cnc2n(C)c1=O [Theo, theophylline, reference compound]
Vss, volume of distribution at steady-state [1, 7]: 0.72 L/kg | clearance [1]: 2.14 mL/min/kg | Vd [1]: 0.73 L/kg | half-life [1]: 236 min

CC(=O)CCCCn1c(=O)c2c(ncn2C)n(C)c1=O [PTX, pentoxifylline, reference compound]
Vss, volume of distribution at steady-state [1, 7]: 0.92 L/kg | clearance [1]: 55.5 mL/min/kg | Vd [1]: 1.18 L/kg | half-life [1]: 14.7 min | fraction unbound at 15 min [2, 4]: 0.19 | fraction unbound at 15 min [2, 5]: 0.19

Cn1c(=O)c2c(ncn2CCCCCN2CCN(c3ccccc3)CC2)n(C)c1=O [GR-2]
clearance [1]: 29.6 mL/min/kg | Vd [1]: 1.52 L/kg | half-life [1]: 35.6 min | fraction unbound at 15 min [2, 4]: 0.29 | fraction unbound at 15 min [2, 5]: 0.29 | fraction unbound at 15 min [2, 6]: 0.28 to 0.29

CCOc1nc2c(c(=O)n(C)c(=O)n2C)n1CCCC(=O)NN [GR-5]
Vss, volume of distribution at steady-state [1, 7]: 0.78 L/kg | clearance [1]: 25.3 mL/min/kg | Vd [1]: 1.43 L/kg | half-life [1]: 39 min | fraction unbound at 15 min [2, 4]: 0.89 | fraction unbound at 15 min [2, 5]: 0.89 | fraction unbound at 15 min [2, 6]: 0.89

Cn1c(=O)c2c(ncn2CCCCCN2CCN(c3cccc(Cl)c3)CC2)n(C)c1=O [GR-4]
clearance [1]: 26.4 mL/min/kg | Vd [1]: 1.9 L/kg | half-life [1]: 50 min | fraction unbound at 15 min [2, 4]: 0.06 | fraction unbound at 15 min [2, 5]: 0.06

COc1nc2c(c(=O)n(C)c(=O)n2C)n1CCCC(=O)NCc1ccccc1 [GR-7]
Vss, volume of distribution at steady-state [1, 7]: 0.78 L/kg | clearance [1]: 43.2 mL/min/kg | Vd [1]: 0.95 L/kg | half-life [1]: 15.2 min | fraction unbound at 15 min [2, 4]: 0.13 | fraction unbound at 15 min [2, 5]: 0.13
